Test results published in the supplement of paper PMC10307832.

How the values were obtained:
Experiment in all cases: relative viability (nuclei count vs DMSO), 5 days (fraction); higher = more cells survive
[1] = compound: C1CN(CCC1C(C2=CC3=C(C=C2)OCO3)(C4=CC5=C(C=C4)OCO5)O)C(=O)OC6=CC=C(C=C6)[N+](=O)[O-] [JZL-184] + CC(C)C[C@H](NC(=O)[C@H](Cc1ccccc1)NC(=O)c1cnccn1)B(O)O [Bortezomib] (partner 0.002 µM)
Summary of the method: (§1)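 Dosing by pin tool came one day after lung cancer cell lines were seeded in 1536-well plates, using either one drug or a fixed anchor-drug dose plus five library-drug doses (not always all listed) in √10 steps. After 5 days, nuclei were counted on 4× images. Relative viability is treated-well nuclei count divided by vehicle-well nuclei count, and values are medians of duplicate plates.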

[2] = compound: C1CN(CCC1C(C2=CC3=C(C=C2)OCO3)(C4=CC5=C(C=C4)OCO5)O)C(=O)OC6=CC=C(C=C6)[N+](=O)[O-] [JZL-184] + CCNC(=O)c1noc(-c2cc(C(C)C)c(O)cc2O)c1-c1ccc(CN2CCOCC2)cc1 [Luminespib] (partner 0.01 µM)
Summary of the method: as §1

[3] = compound: C1CN(CCC1C(C2=CC3=C(C=C2)OCO3)(C4=CC5=C(C=C4)OCO5)O)C(=O)OC6=CC=C(C=C6)[N+](=O)[O-] [JZL-184] + COc1cc2c(Oc3ccc(NC(=O)C4(C(=O)Nc5ccc(F)cc5)CC4)cc3F)ccnc2cc1OCCCN1CCOCC1 [Foretinib] (partner 0.25 µM)
Summary of the method: as §1

[4] = compound: C1CN(CCC1C(C2=CC3=C(C=C2)OCO3)(C4=CC5=C(C=C4)OCO5)O)C(=O)OC6=CC=C(C=C6)[N+](=O)[O-] [JZL-184] + Cc1cc(Nc2cc(N3CCN(C)CC3)nc(Sc3ccc(NC(=O)C4CC4)cc3)n2)n[nH]1 [Tozasertib] (partner 0.1 µM)
Summary of the method: as §1

[5] = compound: C1CN(CCC1C(C2=CC3=C(C=C2)OCO3)(C4=CC5=C(C=C4)OCO5)O)C(=O)OC6=CC=C(C=C6)[N+](=O)[O-] [JZL-184] + O=C(CCCCCCC(=O)Nc1ccccc1)NO [Vorinostat] (partner 1 µM)
Summary of the method: as §1

Cell Line	relative viability ([1]; first compound 0.04 µM)	relative viability ([1]; first compound 0.4 µM)	relative viability ([1]; first compound 1.265 µM)	relative viability ([1]; first compound 4 µM)	relative viability ([2]; first compound 0.04 µM)	relative viability ([2]; first compound 0.4 µM)	relative viability ([2]; first compound 1.265 µM)	relative viability ([2]; first compound 4 µM)	relative viability ([3]; first compound 0.04 µM)	relative viability ([3]; first compound 0.4 µM)	relative viability ([3]; first compound 1.265 µM)	relative viability ([3]; first compound 4 µM)	relative viability ([4]; first compound 0.04 µM)	relative viability ([4]; first compound 0.4 µM)	relative viability ([4]; first compound 1.265 µM)	relative viability ([4]; first compound 4 µM)	relative viability ([5]; first compound 0.04 µM)	relative viability ([5]; first compound 0.4 µM)	relative viability ([5]; first compound 1.265 µM)	relative viability ([5]; first compound 4 µM)
EKVX	1.12	0.905	1.04	0.967	0.795	0.71	0.944	0.863	0.677	0.752	0.925	0.755	0.39	0.408	0.423	0.351	0.676	0.666	0.719	0.58
EMC-BAC-2	1.2	1.02	1.16	1.07	1.26	1.11	1.24	1.09	1.09	0.957	1.09	0.947	0.296	0.282	0.285	0.287	0.522	0.451	0.761	0.371
EPLC-272H	1.03	0.735	1.06	0.839	0.242	0.241	0.886	0.84	0.773	0.668	0.907	0.712	0.59	0.277	0.31	0.198	0.509	0.536	0.402	0.53
H3255	0.954	0.708	1.01	0.75	1.03	0.765	1	0.938	0.832	0.684	0.95	0.987	0.613	0.65	0.747	0.623	0.849	0.819	0.857	0.722
